Like-named read-outs stand apart in the source and are kept apart here.
Legend:
[1] = test system: ovarian cancer cells (PA-1); test: Cancer cell line growth inhibition (SRB assay); assay type: cell-based; details: read-out: Cancer Cell Line GI50 Range PA-1
[2] = test system: colon cancer cells (HCT116); test: Cancer cell line growth inhibition (SRB assay); assay type: cell-based; details: Homo sapiens, HCT-116, read-out: Cancer Cell Line GI50 Range HCT116
[3] = PA-1 ovarian cancer cells, SRB assay
[4] = HCT116 colon cancer cells, SRB assay

Row | Structure (SMILES) | GI50 [1, 3] [nM] | GI50 [2, 4] [nM] | GI50 ([1]; Homo sapiens, PA-1) [nM] | GI50 [2] [nM]
1 | O=CN1CCC(Oc2ccc(-c3n[nH]c4ccc(C(=O)NC(c5ccccc5)C5CC5)cc34)cc2)CC1 (stereo not drawn) [Example A126, N-(cyclopropyl(phenyl)methyl)-3-(4-((1-formylpiperidin-4-yl)oxy)phenyl)-1H-indazole-5-carboxamide] | 100 to 500 | 100 to 500 | – | –
2 | Cc1ccccc1C(NC(=O)c1ccc2[nH]nc(-c3ccc(OC4CCN(C)CC4)cc3)c2c1)C(C)C (stereo not drawn) [Example A143, N-(2-methyl-1-(o-tolyl)propyl)-3-(4-((1-methylpiperidin-4-yl)oxy)phenyl)-1H-indazole-5-carboxamide] | 100 to 500 | 100 to 500 | – | –
3 | CCc1cccc(CC)c1NC(=O)Nc1ccc2[nH]nc(-c3ccc4c(c3)CN(C)CCO4)c2c1 [Example A114, 1-(2,6-diethylphenyl)-3-(3-(4-methyl-2,3,4,5-tetrahydrobenzo[f][1,4]oxazepin-7-yl)-1H-indazol-5-yl)urea] | > 500 | > 500 | – | –
4 | O=C(NC(c1ccccc1)C1CC1)c1ccc2[nH]nc(-c3ccc(OC4CCN(CCO)CC4)cc3)c2c1 (stereo not drawn) [Example A104, N-(cyclopropyl(phenyl)methyl)-3-(4-((1-(2-hydroxyethyl)piperidin-4-yl)oxy)phenyl)-1H-indazole-5-carboxamide] | < 100 | < 100 | – | –
5 | CN1CCC(Oc2ccc(-c3n[nH]c4ccc(C(=O)NCc5ccccc5CO)cc34)cc2)CC1 [Example A142, N-(2-(hydroxymethyl)benzyl)-3-(4-((1-methylpiperidin-4-yl)oxy)phenyl)-1H-indazole-5-carboxamide] | > 500 | 100 to 500 | – | –
6 | COc1cc(-c2n[nH]c3ccc(C(=O)NC(c4ccccn4)C4CC4)cc23)ccc1OC1CCN(C2COC2)CC1 (stereo not drawn) [Example A195, N-(cyclopropyl(pyridin-2-yl)methyl)-3-(3-methoxy-4-((1-(oxetan-3-yl)piperidin-4-yl)oxy)phenyl)-1H-indazole-5-carboxamide] | 100 to 500 | 100 to 500 | – | –
7 | CO[C@@H](C(=O)Nc1ccc2[nH]nc(-c3ccc(OCC4CCN(C)CC4)cc3)c2c1)c1ccccc1 [Example A145, (R)-2-methoxy-N-(3-(4-((1-methylpiperidin-4-yl)methoxy)phenyl)-1H-indazol-5-yl)-2-phenylacetamide] | 100 to 500 | 100 to 500 | – | –
8 | O=CN1CCC(Oc2ccc(-c3n[nH]c4ccc(C(=O)N[C@@H](c5ncccc5Cl)C5CC5)cc34)cc2)CC1 [Example A211, (R)-N-((3-chloropyridin-2-yl)(cyclopropyl)methyl)-3-(4-((1-formylpiperidin-4-yl)oxy)phenyl)-1H-indazole-5-carboxamide] | – | – | 100 to 500 | 100 to 500
9 | CN(C)C(=O)CN1CCC(Oc2ccc(-c3n[nH]c4ccc(C(=O)NC(c5ccccc5)C5CC5)cc34)cc2)CC1 (stereo not drawn) [Example A158, N-(cyclopropyl(phenyl)methyl)-3-(4-((1-(2-(dimethylamino)-2-oxoethyl)piperidin-4-yl)oxy)phenyl)-1H-indazole-5-carboxamide] | 100 to 500 | 100 to 500 | – | –
10 | COCCN1CCC(Oc2ccc(-c3n[nH]c4ccc(C(=O)N[C@H](COC)c5ccccc5)cc34)cc2)CC1 [Example A164, (S)-N-(2-methoxy-1-phenylethyl)-3-(4-((1-(2-methoxyethyl)piperidin-4-yl)oxy)phenyl)-1H-indazole-5-carboxamide] | 100 to 500 | 100 to 500 | – | –
11 | CN1CCN(c2ccc(-c3n[nH]c4ccc(NC(=O)C(c5ccsc5)N5CCCC5)cc34)cc2)CC1 (stereo not drawn) [Example A2, N-(3-(4-(4-methylpiperazin-1-yl)phenyl)-1H-indazol-5-yl)-2-(pyrrolidin-1-yl)-2-(thiophen-3-yl)acetamide] | – | < 100 | – | –
12 | CN(C)CCOc1ccc(-c2n[nH]c3ccc(NC(=O)C(c4ccsc4)N4CCCC4)cc23)cc1 (stereo not drawn) [Example A5, N-(3-(4-(2-(dimethylamino)ethoxy)phenyl)-1H-indazol-5-yl)-2-(pyrrolidin-1-yl)-2-(thiophen-3-yl)acetamide] | – | < 100 | – | –
13 | COc1cc(-c2n[nH]c3ccc(NC(=O)C(c4ccsc4)N4CCCC4)cc23)ccc1OC1CCNCC1 (stereo not drawn) [Example A8, N-(3-(3-methoxy-4-(piperidin-4-yloxy)phenyl)-1H-indazol-5-yl)-2-(pyrrolidin-1-yl)-2-(thiophen-3-yl)acetamide] | – | < 100 | – | –
14 | CN(C)CCCOc1ccc(-c2n[nH]c3ccc(NC(=O)C(c4ccsc4)N4CCCC4)cc23)cc1 (stereo not drawn) [Example A43, N-(3-(4-(3-(dimethylamino)propoxy)phenyl)-1H-indazol-5-yl)-2-(pyrrolidin-1-yl)-2-(thiophen-3-yl)acetamide] | – | < 100 | – | –
15 | CN1CCC(Oc2ccc(-c3n[nH]c4ccc(NC(=O)C5c6ccccc6CCN5C)cc34)cc2)CC1 (stereo not drawn) [Example A39, 2-methyl-N-(3-(4-((1-methylpiperidin-4-yl)oxy)phenyl)-1H -indazol-5-yl)-1,2,3,4-tetrahydroisoquinoline-1-carboxamide] | – | < 100 | – | –
16 | CN1CCC(Oc2ccc(-c3n[nH]c4ccc(NC(=O)N5CCCc6ccccc65)cc34)cc2)CC1 [Example A73, N-(3-(4-((1-methylpiperidin-4-yl)oxy)phenyl)-1H-indazol-5-yl)-3,4-dihydroquinoline-1(2H)-carboxamide] | – | > 500 | – | –

Second part, the compound after the results:

Row | GI50 [1, 3] [nM] | GI50 [2, 4] [nM] | GI50 ([1]; Homo sapiens, PA-1) [nM] | GI50 [2] [nM] | Structure (SMILES)
17 | 100 to 500 | 100 to 500 | – | – | Cc1ccccc1C(NC(=O)c1ccc2[nH]nc(-c3ccc(N4CCOCC4)cc3)c2c1)C1CC1 (stereo not drawn) [Example A119, N-(cyclopropyl(o-tolyl)methyl)-3-(4-morpholinophenyl)-1H-indazole-5-carboxamide]
18 | < 100 | < 100 | – | – | O=C(Nc1ccc2[nH]nc(-c3ccc(N4CCOCC4)cc3)c2c1)C(c1cccs1)N1CCCC1 (stereo not drawn) [Example A82, N-(3-(4-morpholinophenyl)-1H-indazol-5-yl)-2-(pyrrolidin-1-yl)-2-(thiophen-2-yl)acetamide]
19 | 100 to 500 | < 100 | – | – | O=C(NC(c1ccccc1)C1CC1)c1ccc2[nH]nc(-c3ccc(N4CCC(O)CC4)cc3)c2c1 (stereo not drawn) [Example A84, N-(cyclopropyl(phenyl)methyl)-3-(4-(4-hydroxypiperidin-1-yl)phenyl)-1H-indazole-5-carboxamide]
20 | < 100 | < 100 | – | – | O=C(Nc1ccc2[nH]nc(-c3ccc(N4CCC(O)CC4)cc3)c2c1)C(c1cccs1)N1CCCC1 (stereo not drawn) [Example A88, N-(3-(4-(4-hydroxypiperidin-1-yl)phenyl)-1H-indazol-5-yl)-2-(pyrrolidin-1-yl)-2-(thiophen-2-yl)acetamide]
21 | 100 to 500 | 100 to 500 | – | – | Cc1ccccc1C(NC(=O)c1ccc2[nH]nc(-c3ccc(N4CC(O)C4)cc3)c2c1)C1CC1 (stereo not drawn) [Example A141, N-(cyclopropyl(o-tolyl)methyl)-3-(4-(3-hydroxyazetidin-1-yl)phenyl)-1H-indazole-5-carboxamide]
22 | 100 to 500 | 100 to 500 | – | – | CC[C@@H](NC(=O)c1ccc2[nH]nc(-c3ccc(OC4CCN(C5COC5)CC4)cc3)c2c1)c1ccccc1Cl [Example A192, (R)-N-(1-(2-chlorophenyl)propyl)-3-(4-((1-(oxetan-3-yl)piperidin-4-yl)oxy)phenyl)-1H-indazole-5-carboxamide]
23 | 100 to 500 | 100 to 500 | – | – | CN1CCC(Oc2ccc(-c3n[nH]c4ccc(C(=O)NCC(c5ccccc5)C5CCCC5)cc34)cc2)CC1 (stereo not drawn) [Example A207, N-(2-cyclopentyl-2-phenylethyl)-3-(4-((1-methylpiperidin-4-yl)oxy)phenyl)-1H-indazole-5-carboxamide]
24 | 100 to 500 | 100 to 500 | – | – | CN1CCC(Oc2ccc(-c3n[nH]c4ccc(C(=O)NCc5ccccc5N5CCOCC5)cc34)cc2)CC1 [Example A108, 3-(4-(1-Methylpiperidin-4-yloxy)phenyl)-N-(2-morpholinobenzyl)-1H-indazole-5-carboxamide]
25 | 100 to 500 | > 500 | – | – | CN1CCC(Oc2ccc(-c3n[nH]c4ccc(C(=O)NCc5ccccc5CN5CCOCC5)cc34)cc2)CC1 [Example A109, 3-(4-(1-Methylpiperidin-4-yloxy)phenyl)-N-(2-(morpholinomethyl)benzyl)-1H-indazole-5-carboxamide]
26 | – | < 100 | – | – | C[C@@H](NC(=O)c1ccc2[nH]nc(-c3ccc(OC4CCN(C)CC4)cc3)c2c1)c1cccs1 [Example A55, (R)-3-(4-((1-methylpiperidin-4-yl)oxy)phenyl)-N-(1-(thiophen-2-yl)ethyl)-1H-indazole-5-carboxamide]
27 | – | < 100 | – | – | CN1CCC(Oc2ccc(-c3n[nH]c4ccc(NC(=O)C(c5ccsc5)C5CCCC5)cc34)cc2)CC1 (stereo not drawn) [Example A36, 2-cyclopentyl-N-(3-(4-((1-methylpiperidin-4-yl)oxy)phenyl)-1H-indazol-5-yl)-2-(thiophen-3-yl)acetamide]
28 | – | 100 to 500 | – | – | O=C(N[C@H](c1ccccc1)C1CC1)c1ccc2[nH]nc(-c3ccc(N4CCOCC4)cc3)c2c1 [Example A49, (S)-N-(cyclopropyl(phenyl)methyl)-3-(4-morpholinophenyl)-1H-indazole-5-carboxamide]
29 | – | > 500 | – | – | CN1CCC(Oc2ccc(-c3n[nH]c4ccc(C(=O)NCC(C)(C)N5CCOCC5)cc34)cc2)CC1 [Example A74, N-(2-methyl-2-morpholinopropyl)-3-(4-((1-methylpiperidin-4-yl)oxy)phenyl)-1H-indazole-5-carboxamide]
30 | – | < 100 | – | – | CC[C@@H](NC(=O)c1ccc2[nH]nc(-c3ccc(OC4CCN(C)CC4)cc3)c2c1)c1cccs1 [Example A63, (R)-3-(4-((1-methylpiperidin-4-yl)oxy)phenyl)-N-(1-(thiophen-2-yl)propyl)-1H-indazole-5-carboxamide]
31 | – | 100 to 500 | – | – | O=C(N[C@@H](c1ccccc1)C1CC1)c1ccc2[nH]nc(-c3ccc(N4CCOCC4)cc3)c2c1 [Example A51, (R)-N-(cyclopropyl(phenyl)methyl)-3-(4-morpholinophenyl)-1H-indazole-5-carboxamide]
32 | – | 100 to 500 | – | – | C[C@H](NC(=O)c1ccc2[nH]nc(-c3ccc(N4CCOCC4)cc3)c2c1)C1CCCCC1 [Example A40, (S)-N-(1-cyclohexylethyl)-3-(4-morpholinophenyl)-1H-indazole-5-carboxamide]

Source: patent US9580390B2, “Indazole compounds as kinase inhibitors and method of treating cancer with same” (University Health Network, priority 2011, dated 2017)
